Literature values, collected in patent US20040019012A1, “Ophthalmic antibiotic drug formulations containing a cyclodextrin compound and cetyl pyridinium chloride” (priority 2002, published 2004).

Key:
[1] = tested on: infective gram-positive bacteria; details: minimum inhibitory concentration for 90% of the target organisms
[2] = tested on: gram-positive organisms; details: Staphylococcus, Streptococcus, Enterococcus, Bacillus, Corynebacterium, Chlamydia, Neisseria

In the case of `CC(=O)NC[C@H]1CN(c2ccc(N3CCOCC3)c(F)c2)C(=O)O1` [linezolid, (S)-N-[[3-[3-fluoro-4-(4-morpholinyl)phenyl]-2-oxo-5-oxazolidinyl]methyl]acetamide], the “practical limit of concentration in aqueous solution” value is listed as “about 2 mg/ml”, the MIC90 [1] is listed as “about 4 μg/ml” and the “antibacterial activity against gram-positive organisms” value [2] is listed as “strong antibacterial activity”.
